Consider 13 compounds from PMC8746645, “Isolation of Anti-Diabetic Active Compounds from Benincasae Exocarpium and Development of Simultaneous Analysis by HPLC-PDA” (Molecules, 2021).

Data set [1] deals with advanced glycation end-products (AGEs) formation in bovine serum albumin (BSA)-glucose system. In kind it is biochemical. How it is done:
The AGE formation inhibitory assay of BSA-glucose was conducted using a spectrophotometric method developed in a previous study. All test samples were dissolved in 10% DMSO at five different concentrations (1000–10,000 μg/mL for the extract and fractions and 100–10,000 μM for the compounds). The assay mixtures contained the following constituents: 135 µL of 50 mM phosphate buffer (pH 7.4) containing 0.02% sodium azide and BSA (10 mg/mL), 135 µL of 0.4 M D-fructose and D-glucose, and 30 µL of sample. The mixture was incubated at 60 °C for 2 days. After incubation, the fluorescence was measured at an excitation wavelength of 350 nm and emission wavelength of 450 nm in a 96-black well plate. AMG was used as a positive control. The inhibitory activity on AGE formation of BSA-glucose was calculated using the following formula: {(Ac − As)/Ac} × 100, where Ac is the fluorescence of the control and As is the fluorescence of the sample. Controls contained the same reaction mixture, except that phosphate buffer was added instead of the sample. The half-maximal inhibitory concentration (IC50) values of triplicate measurements of the samples and AMG were calculated and expressed as the mean ± SD.

For data set [2], the system named is advanced glycation end-products (AGEs) formation in BSA-methylglyoxal (MGO) system. The data set can be described thus: AGE formation inhibitory assay, BSA-MGO system. In kind it is biochemical, bovine. How it is done: The AGE formation inhibitory assay of BSA-MGO was conducted using spectrophotometry according to a previously described method with modification. All samples were dissolved in 10% DMSO. The assay mixtures contained 50 µL of 50 mM phosphate buffer (pH 7.4) containing 0.02% sodium azide and BSA (10 mg/mL), 50 µL of 7 mM MGO, and 50 µL of sample. After incubation at 60 °C for 2 days, fluorescence was measured on excitation and emission wavelengths of 340 and 420 nm, respectively, in a 96-black well plate. AMG was used as a positive control. The inhibitory activity on AGE formation by BSA-MGO was calculated using the same equation applied in the BSA-glucose assay.

Details of data set [3]: method as in PMID 29885110. The following applies: cited from earlier work.
The target of data set [4] is α-glucosidase from Saccharomyces cerevisiae (Saccharomyces cerevisiae, UniProt P53341). In words: α-glucosidase inhibitory activity assay (p-NPG substrate). In kind it is biochemical. The conditions noted are these: for IC50: compounds, pH 6.8, 37 °C, 405 nm, mean ± SD (n = 3). How it is done: Among the anti-diabetes activity assays, the Infinite® F200 PRO spectrophotometer (TECAN, Männedorf, Zürich, Switzerland) was used for the AGE formation inhibitory activity assay in the BSA-glucose and BSA-MGO systems. In addition, the α-glucosidase inhibitory activity assay was performed using Biotek EPOCH2 (Biotek, Winooski, VT, USA).
Chain of α-glucosidase from Saccharomyces cerevisiae (P53341 whole entry): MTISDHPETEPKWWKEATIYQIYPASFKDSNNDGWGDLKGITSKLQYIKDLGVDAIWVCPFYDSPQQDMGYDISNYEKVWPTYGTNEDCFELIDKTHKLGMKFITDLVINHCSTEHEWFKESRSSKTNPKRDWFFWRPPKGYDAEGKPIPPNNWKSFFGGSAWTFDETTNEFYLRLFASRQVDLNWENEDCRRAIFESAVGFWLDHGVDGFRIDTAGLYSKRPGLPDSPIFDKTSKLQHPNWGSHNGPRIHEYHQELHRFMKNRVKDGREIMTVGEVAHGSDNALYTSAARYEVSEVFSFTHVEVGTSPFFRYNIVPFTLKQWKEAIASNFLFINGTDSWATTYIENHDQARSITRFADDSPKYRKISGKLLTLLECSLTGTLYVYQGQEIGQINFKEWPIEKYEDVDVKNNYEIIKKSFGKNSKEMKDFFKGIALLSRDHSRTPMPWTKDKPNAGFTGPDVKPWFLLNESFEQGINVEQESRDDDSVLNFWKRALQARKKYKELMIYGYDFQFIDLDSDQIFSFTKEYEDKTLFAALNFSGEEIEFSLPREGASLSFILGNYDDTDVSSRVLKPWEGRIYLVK
α-Glucosidase inhibitory activity was measured spectrophotometrically according to the previously described method. All samples were dissolved in 10% DMSO. This assay consisted of a 50 μL sample solution, 50 μL of 50 mM potassium phosphate buffer (pH 6.8), and 50 μL of 0.5 U/mL α-glucosidase was preincubated for 10 min at 37 °C. After incubation, 50 μL of p-NPG was added to the mixed assay mixtures. […] The inhibitory activity was calculated using the equation applied in the BSA-glucose assay, but Ac and As are the absorbance values of the control and sample, respectively.

Setting [5] is: compounds, 60 °C, 2 days, fluorescence ex 350/em 450 nm, mean ± SD (n = 3), read-out: IC50 BSA-Glucose.
The mark [6] stands for this setting: compounds, 60 °C, 2 days, fluorescence ex 340/em 420 nm, mean ± SD (n = 3).

Like-named read-outs stand apart in the source and are kept apart here.

By IC50 is commonly meant the midpoint of a concentration-inhibition curve.

As to `Cl.N=C(N)NN` [AMG, aminoguanidine hydrochloride, reference compound], the “IC50 BSA-Glucose” value in data set [1] (extract and fractions, 60 °C, 2 days, fluorescence ex 350/em 450 nm, mean ± SD (n = 3)) came to 217.93 ± 1.54 µg/mL. Also, the “IC50 BSA-MGO” value in data set [2] (extract and fractions, 60 °C, 2 days, fluorescence ex 340/em 420 nm, mean ± SD (n = 3)) came out at 167.32 ± 8.40 µg/mL.

Take `N=C(N)NN` [Aminoguanidine, aminoguanidine]: in data set [3], the “toxicity during clinical evaluation” value was “toxic”.

Consider `O=C(O)c1ccc(O)cc1` [Compound 1, p-hydroxybenzoic acid], for which, in data set [1], the “inhibition of AGE formation in BSA-glucose system (in words)” value is “no activity”. For the same compound, in data set [2], the “inhibition of AGE formation in BSA-MGO system (in words)” value is given as “no or slight inhibitory activity”. Besides, the “α-glucosidase inhibitory activity (in words)” value in data set [4] was “no, or slight, inhibitory activity”.

Turning to `O=C(O)c1ccc(O)c(O)c1` [Compound 2, protocatechuic acid], the IC50 in data set [1] (setting [5]) was found to be 79.8 ± 1.91 µM; in data set [2] (setting [6]), 53.2 ± 23.2 µM.

As to `COc1ccc(C=O)cc1O` [Compound 3, isovanillin], the “inhibition of AGE formation in BSA-glucose system (in words)” value in data set [1] is recorded as “no activity”. Besides, the “inhibition of AGE formation in BSA-MGO system (in words)” value in data set [2] is given as “no or slight inhibitory activity”. The compound also showed an IC50 in data set [2] (setting [6]) of over 500 µM. In data set [4], the “α-glucosidase inhibitory activity (in words)” value is reported as “no, or slight, inhibitory activity”.

Regarding `O=Cc1ccc(CO)o1` [Compound 4, 5-hydroxymethylfurfural], the “inhibition of AGE formation in BSA-glucose system (in words)” value in data set [1] is reported as “no activity”. The “inhibition of AGE formation in BSA-MGO system (in words)” value in data set [2] was “no or slight inhibitory activity”. This compound also had an IC50 in data set [2] (setting [6]) of 381 ± 14.7 µM. Moreover, the “α-glucosidase inhibitory activity (in words)” value in data set [4] is on record as “no, or slight, inhibitory activity”.

For `O=c1cc(-c2ccc(O)cc2)oc2cc(O)c([C@@H]3O[C@H](CO)[C@@H](O)[C@H](O)[C@H]3O)c(O)c12` [Compound 5, isovitexin], the IC50 in data set [1] (setting [5]) came out at 20.2 ± 0.1 µM; in data set [2] (setting [6]) it was 7.49 ± 0.24 µM.

Regarding `O=c1cc(-c2ccc(O)cc2)oc2c([C@@H]3O[C@H](CO)[C@@H](O)[C@H](O)[C@H]3O)c(O)cc(O)c12` [Compound 6, vitexin], the IC50 in data set [1] (setting [5]) was 19.5 ± 1.47 µM; in data set [2] (setting [6]) it was 14.9 ± 3.66 µM.

In the case of `O=c1cc(-c2ccc(O)c(O)c2)oc2c([C@@H]3O[C@H](CO)[C@@H](O)[C@H](O)[C@H]3O)c(O)cc(O)c12` [Compound 7, orientin], the IC50 in data set [1] (setting [5]) stood at 9.61 ± 0.27 µM; in data set [2] (setting [6]), 13.3 ± 0.65 µM.

On to `O=C(O)c1cc(O)c(O)c(O)c1` [Compound 8, gallic acid], for which the IC50 in data set [1] (setting [5]) was 192 ± 2.15 µM; in data set [2] (setting [6]), over 500 µM. Also, the “inhibition of AGE formation in BSA-MGO system (in words)” value in data set [2] was “no or slight inhibitory activity”.

Consider `O=C(O)/C=C/c1ccc(O)c(O)c1` [Compound 9, caffeic acid], for which the IC50 in data set [1] (setting [5]) stood at 54.51 ± 0.3 µM; in data set [2] (setting [6]), 43 ± 9.41 µM. For the same compound, the “α-glucosidase inhibitory activity (in words)” value in data set [4] is reported as “no, or slight, inhibitory activity”.

As to `C[C@@H]1O[C@@H](O[C@@H]2[C@@H](O)[C@H](O)[C@@H](CO)O[C@H]2c2c(O)cc(O)c3c(=O)cc(-c4ccc(O)cc4)oc23)[C@H](O)[C@H](O)[C@H]1O` [Compound 10, vitexin-2″-O-rhamnoside], the IC50 in data set [1] came out at 29.6 ± 1.02 µM; in data set [2], 12.5 ± 0.81 µM; in data set [4], 12.8 ± 1.18 µM.

As to `O=c1cc(-c2ccc(O)cc2)oc2c([C@@H]3O[C@H](CO)[C@@H](O[C@@H]4O[C@H](CO)[C@@H](O)[C@H](O)[C@H]4O)[C@H](O)[C@H]3O)c(O)cc(O)c12` [Compound 11, vitexin-4″-O-glucoside], the values for the IC50 in data set [1] (setting [5]), in data set [2] (setting [6]) and in data set [4] were 14.5 ± 0.39 µM, 11.6 ± 1.1 µM and 65.4 ± 4.22 µM, respectively.
